Reference: PubChem BioAssay AID248 (DTP/NCI, 2004)
“And” between values parts separate entries of the source, which are not always exact repeats. Equal values may be shown once. Inconclusive results and toxic doses are left out.

System: L1210 leukemia ip in BDF1 mice, survival T/C
Test: NCI In Vivo Anticancer Drug Screen. Data for tumor model L1210 Leukemia (intraperitoneal) in B6D2F1 (BDF1) mice
Details: higher = longer survival
Outline: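 Tumor was transplanted into mice, which were then dosed with test compound or vehicle alone. Survival was recorded for each group, and the treated figure was expressed relative to the control figure.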

[1] = endpoint: mean survival time, dose: 100.0 mg/kg/injection, schedule: Q01DX009 (ip), vehicle: saline
[2] = endpoint: mean survival time, dose: 100.0 mg/kg/injection, schedule: Q01DX009 (ip), vehicle: Klucel (hydroxypropylcellulose) (HPC)
[3] = endpoint: mean survival time, dose: 100.0 mg/kg/injection, schedule: Q01DX001 (ip), vehicle: carboxymethylcellulose (CMC)
[4] = endpoint: mean survival time, dose: 200.0 mg/kg/injection, schedule: Q01DX001 (ip), vehicle: carboxymethylcellulose (CMC)
[5] = endpoint: mean survival time, dose: 400.0 mg/kg/injection, schedule: Q01DX001 (ip), vehicle: carboxymethylcellulose (CMC)
[6] = endpoint: mean survival time, dose: 100.0 mg/kg/injection, schedule: Q04DX003 (ip), vehicle: Klucel (hydroxypropylcellulose) (HPC)
[7] = endpoint: mean survival time, dose: 200.0 mg/kg/injection, schedule: Q04DX003 (ip), vehicle: Klucel (hydroxypropylcellulose) (HPC)
[8] = endpoint: mean survival time, dose: 400.0 mg/kg/injection, schedule: Q04DX003 (ip), vehicle: Klucel (hydroxypropylcellulose) (HPC)

In the case of `COc1cccc2c1C(=O)c1c(O)c3c(c(O)c1C2=O)C[C@@](O)(/C(C)=N/NC(=O)c1ccccc1)C[C@@H]3OC1CC(N)C(O)C(C)O1` (some centres not stated), the T/C (endpoint: mean survival time, dose: 0.25 mg/kg/injection, schedule: Q04DX003 (ip), vehicle: water) was 110 % of control, the T/C (endpoint: mean survival time, dose: 0.5 mg/kg/injection, schedule: Q04DX003 (ip), vehicle: water) was 111 % of control and the T/C (endpoint: mean survival time, dose: 1.0 mg/kg/injection, schedule: Q04DX003 (ip), vehicle: water) was 117 % of control. For the same compound, the T/C (endpoint: mean survival time, dose: 4.0 mg/kg/injection, schedule: Q04DX003 (ip), vehicle: water) was 124 % of control, the T/C (endpoint: mean survival time, dose: 8.0 mg/kg/injection, schedule: Q04DX003 (ip), vehicle: water) was 151 % of control and the T/C (endpoint: mean survival time, dose: 16.0 mg/kg/injection, schedule: Q04DX003 (ip), vehicle: water) was 179 % of control and 205 % of control. The T/C (endpoint: mean survival time, dose: 24.0 mg/kg/injection, schedule: Q04DX003 (ip), vehicle: water) was 120 % of control, the T/C (endpoint: median survival time, dose: 0.25 mg/kg/injection, schedule: Q01DX009 (ip), vehicle: water) was 94 % of control and the T/C (endpoint: median survival time, dose: 0.25 mg/kg/injection, schedule: Q03HX024 (ip), vehicle: water) was 105 % of control. The T/C (endpoint: median survival time, dose: 0.5 mg/kg/injection, schedule: Q01DX009 (ip), vehicle: water) was 110 % of control, the T/C (endpoint: median survival time, dose: 0.5 mg/kg/injection, schedule: Q03HX024 (ip), vehicle: water) was 110 % of control and the T/C (endpoint: median survival time, dose: 0.78 mg/kg/injection, schedule: Q03HX008 (ip), vehicle: water) was 122 % of control. For the same compound, the T/C (endpoint: median survival time, dose: 0.78 mg/kg/injection, schedule: Q03HX024 (ip), vehicle: water) was 111 % of control, the T/C (endpoint: median survival time, dose: 1.0 mg/kg/injection, schedule: Q01DX009 (ip), vehicle: water) was 115 % of control and the T/C (endpoint: median survival time, dose: 1.0 mg/kg/injection, schedule: Q03HX008 (ip), vehicle: water) was 115 % of control. For the same compound, the T/C (endpoint: median survival time, dose: 1.17 mg/kg/injection, schedule: Q03HX024 (ip), vehicle: water) was 100 % of control, the T/C (endpoint: median survival time, dose: 1.2 mg/kg/injection, schedule: Q01DX009 (ip), vehicle: water) was 105 % of control and the T/C (endpoint: median survival time, dose: 1.2 mg/kg/injection, schedule: Q03HX008 (ip), vehicle: water) was 105 % of control. The T/C (endpoint: median survival time, dose: 1.25 mg/kg/injection, schedule: Q04DX003 (ip), vehicle: water) was 105 % of control, the T/C (endpoint: median survival time, dose: 1.75 mg/kg/injection, schedule: Q01DX009 (ip), vehicle: water) was 94 % of control and the T/C (endpoint: median survival time, dose: 1.75 mg/kg/injection, schedule: Q03HX024 (ip), vehicle: water) was 111 % of control. The T/C (endpoint: median survival time, dose: 2.0 mg/kg/injection, schedule: Q01DX009 (ip), vehicle: water) was 110 % of control, the T/C (endpoint: median survival time, dose: 2.5 mg/kg/injection, schedule: Q01DX001 (ip), vehicle: water) was 115 % of control and the T/C (endpoint: median survival time, dose: 2.5 mg/kg/injection, schedule: Q04DX003 (ip), vehicle: water) was 121 % of control. The T/C (endpoint: median survival time, dose: 2.6 mg/kg/injection, schedule: Q01DX009 (ip), vehicle: water) was 122 % of control, the T/C (endpoint: median survival time, dose: 2.6 mg/kg/injection, schedule: Q03HX008 (ip), vehicle: water) was 105 % of control and the T/C (endpoint: median survival time, dose: 2.6 mg/kg/injection, schedule: Q03HX024 (ip), vehicle: water) was 94 % of control. The T/C (endpoint: median survival time, dose: 2.6 mg/kg/injection, schedule: Q04DX003 (ip), vehicle: water) was 111 % of control, the T/C (endpoint: median survival time, dose: 3.9 mg/kg/injection, schedule: Q01DX001 (ip), vehicle: water) was 111 % of control and the T/C (endpoint: median survival time, dose: 3.9 mg/kg/injection, schedule: Q01DX009 (ip), vehicle: water) was 122 % of control. For the same compound, the T/C (endpoint: median survival time, dose: 3.9 mg/kg/injection, schedule: Q03HX008 (ip), vehicle: water) was 100 % of control, the T/C (endpoint: median survival time, dose: 3.9 mg/kg/injection, schedule: Q03HX024 (ip), vehicle: water) was 88 % of control and the T/C (endpoint: median survival time, dose: 3.9 mg/kg/injection, schedule: Q04DX003 (ip), vehicle: water) was 111 % of control. For the same compound, the T/C (endpoint: median survival time, dose: 4.0 mg/kg/injection, schedule: Q03HX008 (ip), vehicle: water) was 152 % of control, the T/C (endpoint: median survival time, dose: 5.0 mg/kg/injection, schedule: Q01DX001 (ip), vehicle: water) was 115 % of control and the T/C (endpoint: median survival time, dose: 5.0 mg/kg/injection, schedule: Q04DX003 (ip), vehicle: water) was 105 % of control. For the same compound, the T/C (endpoint: median survival time, dose: 5.9 mg/kg/injection, schedule: Q01DX001 (ip), vehicle: water) was 100 % of control, the T/C (endpoint: median survival time, dose: 5.9 mg/kg/injection, schedule: Q04DX003 (ip), vehicle: water) was 100 % of control and the T/C (endpoint: median survival time, dose: 8.9 mg/kg/injection, schedule: Q01DX001 (ip), vehicle: water) was 122 % of control. The T/C (endpoint: median survival time, dose: 8.9 mg/kg/injection, schedule: Q01DX009 (ip), vehicle: water) was 94 % of control, the T/C (endpoint: median survival time, dose: 8.9 mg/kg/injection, schedule: Q04DX003 (ip), vehicle: water) was 111 % of control and the T/C (endpoint: median survival time, dose: 10.0 mg/kg/injection, schedule: Q01DX001 (ip), vehicle: water) was 115 % of control. For the same compound, the T/C (endpoint: median survival time, dose: 10.0 mg/kg/injection, schedule: Q04DX003 (ip), vehicle: water) was 163 % of control, the T/C (endpoint: median survival time, dose: 13.3 mg/kg/injection, schedule: Q01DX001 (ip), vehicle: water) was 111 % of control and the T/C (endpoint: median survival time, dose: 13.3 mg/kg/injection, schedule: Q04DX003 (ip), vehicle: water) was 105 % of control. The T/C (endpoint: median survival time, dose: 20.0 mg/kg/injection, schedule: Q01DX001 (ip), vehicle: water) was 157 % of control, the T/C (endpoint: median survival time, dose: 20.0 mg/kg/injection, schedule: Q04DX003 (ip), vehicle: water) was 100 % of control and the T/C (endpoint: median survival time, dose: 20.0 mg/kg/injection, schedule: Q08DX002 (ip), vehicle: water) was 89 % of control.

In the case of `c1ccc(C2=NCC3(CCCC3)N=C2c2ccccc2)cc1`, the T/C [1] was 101 % of control, the T/C (endpoint: mean survival time, dose: 100.0 mg/kg/injection, schedule: Q04DX003 (ip), vehicle: saline) was 97 % of control and the T/C (endpoint: mean survival time, dose: 200.0 mg/kg/injection, schedule: Q01DX009 (ip), vehicle: saline) was 91 % of control. The T/C (endpoint: mean survival time, dose: 200.0 mg/kg/injection, schedule: Q04DX003 (ip), vehicle: saline) was 90 % of control, the T/C (endpoint: mean survival time, dose: 400.0 mg/kg/injection, schedule: Q01DX009 (ip), vehicle: saline) was 100 % of control and the T/C (endpoint: mean survival time, dose: 400.0 mg/kg/injection, schedule: Q04DX003 (ip), vehicle: saline) was 92 % of control.

In the case of `CCOC(=O)c1ccc(NC(=S)Nc2ccccc2)cc1N(CC)CC`, the T/C [2] was 101 % of control, the T/C (endpoint: mean survival time, dose: 200.0 mg/kg/injection, schedule: Q01DX009 (ip), vehicle: Klucel (hydroxypropylcellulose) (HPC)) was 97 % of control and the T/C (endpoint: mean survival time, dose: 400.0 mg/kg/injection, schedule: Q01DX009 (ip), vehicle: Klucel (hydroxypropylcellulose) (HPC)) was 104 % of control.

`COc1cc(-c2ccccc2)c([N+](=O)[O-])cc1[N+](=O)[O-]` was tested, and the T/C [3] was 107 % of control, the T/C [4] was 110 % of control and the T/C [5] was 116 % of control.

In the case of `COc1ccc(OC)c(NC(=O)Oc2ccc(SC)cc2)c1`, the T/C [6] was 86 % of control, the T/C [7] was 88 % of control and the T/C [8] was 86 % of control.

With `O=C(CCl)c1ccccc1` the T/C [3] was 91 % of control, the T/C [4] was 95 % of control and the T/C [5] was 97 % of control.

`Nc1ccc(Cc2ccc(N)c(Br)c2)cc1Br` was tested, and the T/C (endpoint: mean survival time, dose: 50.0 mg/kg/injection, schedule: Q01DX009 (ip), vehicle: saline) was 102 % of control, the T/C (endpoint: mean survival time, dose: 100.0 mg/kg/injection, schedule: Q01DX001 (ip), vehicle: saline) was 93 % of control and the T/C [1] was 98 % of control. The T/C (endpoint: mean survival time, dose: 200.0 mg/kg/injection, schedule: Q01DX001 (ip), vehicle: saline) was 98 % of control.

`CC(C)(C)Sc1cc(C#N)ccn1` was tested, and the T/C (endpoint: mean survival time, dose: 50.0 mg/kg/injection, schedule: Q04DX003 (ip), vehicle: other) was 100 % of control and 92 % of control, the T/C (endpoint: mean survival time, dose: 100.0 mg/kg/injection, schedule: Q04DX002 (ip), vehicle: other) was 103 % of control and 109 % of control and the T/C (endpoint: mean survival time, dose: 200.0 mg/kg/injection, schedule: Q04DX002 (ip), vehicle: other) was 98 % of control and 102 % of control. For the same compound, the T/C (endpoint: mean survival time, dose: 400.0 mg/kg/injection, schedule: Q04DX002 (ip), vehicle: other) was 103 % of control and 106 % of control.

In the case of `Cc1cc(C2CCCCC2)c2ccccc2c1C`, the T/C (endpoint: mean survival time, dose: 100.0 mg/kg/injection, schedule: Q01DX009 (ip), vehicle: saline sonified) was 95 % of control, the T/C [6] was 103 % of control and the T/C (endpoint: mean survival time, dose: 200.0 mg/kg/injection, schedule: Q01DX009 (ip), vehicle: saline sonified) was 102 % of control. The T/C [7] was 98 % of control, the T/C (endpoint: mean survival time, dose: 400.0 mg/kg/injection, schedule: Q01DX009 (ip), vehicle: saline sonified) was 99 % of control and the T/C [8] was 106 % of control.

With `O=C(O)CCC(=O)c1ccc2sc3ccccc3c2c1` the T/C (endpoint: mean survival time, dose: 25.0 mg/kg/injection, schedule: Q01DX009 (ip), vehicle: Klucel (hydroxypropylcellulose) (HPC)) was 106 % of control, the T/C (endpoint: mean survival time, dose: 50.0 mg/kg/injection, schedule: Q01DX009 (ip), vehicle: Klucel (hydroxypropylcellulose) (HPC)) was 100 % of control and the T/C [2] was 97 % of control and 106 % of control. The T/C [6] was 98 % of control, the T/C [7] was 103 % of control and the T/C [8] was 89 % of control.

With `O=C(NCCCl)NC1CCc2ccccc2C1` (configuration not stated) the T/C [6] was 93 % of control, the T/C [7] was 88 % of control and the T/C [8] was 89 % of control.

With `CC(C)=NNc1ccnc(SCc2ccccc2)n1` the T/C [6] was 96 % of control, the T/C [7] was 97 % of control and the T/C [8] was 102 % of control.
